{"source": "patent US20230330223A1", "about": "“TREATMENT OF HER2 NEGATIVE, MAMMAPRINT HIGH RISK 2 BREAST CANCER” (Agendia N.V., priority 2020, published 2023)", "origin": "cited, not measured here", "test_system": "locally advanced breast cancer (Stage II/III)", "settings": "added to standard neoadjuvant chemotherapy; ERBB2-negative (HER2-negative) breast cancer"}
{"substance": "pembrolizumab: immune check point inhibitor, PD1/PDL1 inhibitor antibody (Merck)", "values": [{"measurement": "estimated pCR rates, change versus standard chemotherapy", "result": "more than doubled"}]}
